Source: patent US20120071522A1, “THERMAL STABILIZATION OF BIOCIDES IN MATRIX COMPOSITIONS PROCESSED AT ELEVATED TEMPERATURES” (priority 2004, published 2012)

Assay: Thermal stability (color change) of biocide in polyethylene and wood-plastic composite matrixes processed at elevated temperatures
Assay type: physicochemical

Row | SMILES | color change
1 | O=C1c2ccccc2C(=O)N1SC(Cl)(Cl)Cl [Fungitrol® 11, N-(trichloromethylthio) phthalimide] | no color change
2 | CCCCNC(=O)OCC#CI [IPBC] | no color change
